According to patent publication US20180250303A1, “TGF BETA RECEPTOR ANTAGONISTS” (BRISTOL-MYERS SQUIBB COMPANY, priority 2015, published 2018):
pIC50: −log10 of the molar value.

Experiments:
HIS-TGFβR2 WT = HIS-TGFβR2 WT (Homo sapiens, UniProt P37173); assay: HTRF probe displacement assay, TGFβR2 HIS WT; assay type: binding; details: 1 nM HIS-TGFβR2 WT, labeled probe at Kd, 1 hour at room temperature
Method: (§1) Compounds were dissolved at 10 mM in dimethylsulfoxide (DMSO) and evaluated at eleven concentrations. IC50 values were derived by non-linear regression analysis.

HIS-TGFβR1 T204D = molecular target: T1, HIS-TGFβR1 T204D (Homo sapiens, UniProt P36897, T204D); assay: HTRF probe displacement assay, TGFβR1 HIS T204D; assay type: binding; details: 1 nM HIS-TGFβR1 T204D, labeled probe at Kd, 1 hour at room temperature
T1 sequence (P36897 34-503 T204D): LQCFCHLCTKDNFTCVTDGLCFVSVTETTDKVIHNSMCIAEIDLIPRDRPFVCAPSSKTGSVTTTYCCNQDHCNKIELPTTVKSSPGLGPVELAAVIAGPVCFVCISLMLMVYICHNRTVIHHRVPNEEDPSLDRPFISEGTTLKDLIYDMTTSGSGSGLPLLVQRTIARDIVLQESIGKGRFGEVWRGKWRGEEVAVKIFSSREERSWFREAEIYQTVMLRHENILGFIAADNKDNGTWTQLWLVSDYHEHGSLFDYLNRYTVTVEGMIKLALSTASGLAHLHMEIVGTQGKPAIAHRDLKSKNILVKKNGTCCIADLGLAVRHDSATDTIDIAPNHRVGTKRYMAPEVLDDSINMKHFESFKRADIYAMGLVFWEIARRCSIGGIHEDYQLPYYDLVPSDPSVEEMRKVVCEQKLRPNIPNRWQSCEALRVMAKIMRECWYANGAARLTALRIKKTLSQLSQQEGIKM
Method: as §1

HIS-TGFβR2 WT, sequence (P37173 23-567): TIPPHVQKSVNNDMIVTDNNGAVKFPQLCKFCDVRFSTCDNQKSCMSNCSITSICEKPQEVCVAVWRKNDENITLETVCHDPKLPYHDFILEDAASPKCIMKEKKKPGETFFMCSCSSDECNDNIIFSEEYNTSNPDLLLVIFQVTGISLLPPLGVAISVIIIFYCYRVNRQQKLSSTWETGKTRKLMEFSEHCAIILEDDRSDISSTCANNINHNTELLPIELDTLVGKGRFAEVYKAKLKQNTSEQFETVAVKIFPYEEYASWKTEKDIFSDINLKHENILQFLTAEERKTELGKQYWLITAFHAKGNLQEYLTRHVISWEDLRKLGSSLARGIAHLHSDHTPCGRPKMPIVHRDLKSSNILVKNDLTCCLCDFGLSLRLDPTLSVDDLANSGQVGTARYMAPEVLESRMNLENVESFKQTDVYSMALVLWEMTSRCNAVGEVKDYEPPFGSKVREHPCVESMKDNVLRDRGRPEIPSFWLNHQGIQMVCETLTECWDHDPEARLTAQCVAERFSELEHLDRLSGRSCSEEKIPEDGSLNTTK

| Compound | pIC50 (HIS-TGFβR2 WT) | pIC50 (HIS-TGFβR1 T204D) |
| --- | --- | --- |
| Fc1cnccc1Nc1nc(-c2cccc(C(F)F)n2)nc2[nH]cnc12 [Example 2, 2-(6-(difluoromethyl)pyridin-2-yl)-N-(3-fluoropyridin-4-yl)-9H-Purin-6-amine] | 5.51 | 9.39 |
| Fc1cnccc1Nc1nc(-c2cccc(C(F)(F)F)n2)nc2[nH]cnc12 [Example 3, N-(3-fluoropyridin-4-yl)-2-(6-(trifluoromethyl)pyridin-2-yl)-9H-Purin-6-amine] | < 4.82 | 8.96 |
| Cc1nc(-c2nc(Nc3ccncc3F)c3nc[nH]c3n2)ccc1F [Example 5, 2-(5-fluoro-6-methylpyridin-2-yl)-N-(3-fluoropyridin-4-yl)-9H-Purin-6-amine] | 5.55 | 9.44 |
| CC(=O)Nc1cc(Nc2nc(-c3cccc(C)n3)nc3[nH]cnc23)ccn1 [Example 6, N-(4-((2-(6-methylpyridin-2-yl)-9H-Purin-6-yl)amino)pyridin-2-yl)acetamide] | 6.36 | 9.44 |
| CC(=O)Nc1cc(Nc2nc(-c3ccccn3)nc3[nH]cnc23)ccn1 [Example 9, N-(4-((2-(pyridin-2-yl)-9H-Purin-6-yl)amino)pyridin-2-yl)acetamide] | 6.85 | 9.05 |
| CC(=O)Nc1cc(Nc2nc(-c3cccc(C(F)(F)F)n3)nc3[nH]c(C)nc23)c(F)cn1 [Example 15, N-(5-fluoro-4-((8-methyl-2-(6-(trifluoromethyl)pyridin-2-yl)-9H-Purin-6-yl)amino)pyridin-2-yl)acetamide] | < 4.82 | 7.29 |
| Cc1nc2c(Nc3ccncc3F)nc(-c3cccc(C(F)(F)F)n3)nc2[nH]1 [Example 16, N-(3-fluoropyridin-4-yl)-8-methyl-2-(6-(trifluoromethyl)pyridin-2-yl)-9H-Purin-6-amine] | < 4.82 | 8.28 |
| CC(=O)Nc1cc(Nc2nc(-c3cccc(C(F)(F)F)n3)nc3[nH]c(C4CC4)nc23)ccn1 [Example 17, N-(4-((8-cyclopropyl-2-(6-(trifluoromethyl)pyridin-2-yl)-9H-Purin-6-yl)amino)pyridin-2-yl)acetamide] | < 4.82 | 8.80 |
| CC(=O)Nc1cc(Nc2nc(-c3ccc(F)c(C)n3)nc3[nH]cnc23)ccn1 [Example 24, N-(4-((2-(5-fluoro-6-methylpyridin-2-yl)-9H-purin-6-yl)amino)pyridin-2-yl)acetamide] | 6.54 | 9.47 |

Second part, the compound after the results:

| pIC50 (HIS-TGFβR2 WT) | pIC50 (HIS-TGFβR1 T204D) | Compound |
| --- | --- | --- |
| 6.28 | 9.14 | CC(=O)Nc1cc(Nc2nc(-c3cccc(C(F)F)n3)nc3[nH]cnc23)ccn1 [Example 7, N-(4-((2-(6-(difluoromethyl)pyridin-2-yl)-9H-Purin-6-yl)amino)pyridin-2-yl)acetamide] |
| 5.89 | – | CC(=O)Nc1cc(Nc2nc(-c3cccc(C(F)(F)F)n3)nc3[nH]cnc23)ccn1 [Example 8, N-(4-((2-(6-(trifluoromethyl)pyridin-2-yl)-9H-Purin-6-yl)amino)pyridin-2-yl)acetamide] |
| < 4.82 | 8.05 | CC(=O)Nc1nccc(Nc2nc(-c3cccc(C(F)(F)F)n3)nc3[nH]cnc23)c1F [Example 12, N-(3-fluoro-4-((2-(6-(trifluoromethyl)pyridin-2-yl)-9H-Purin-6-yl)amino)pyridin-2-yl)acetamide] |
| < 4.82 | 8.80 | CC(=O)Nc1cc(Nc2nc(-c3cccc(C(F)(F)F)n3)nc3[nH]c(C)nc23)ccn1 [Example 14, N-(4-((8-methyl-2-(6-(trifluoromethyl)pyridin-2-yl)-9H-Purin-6-yl)amino)pyridin-2-yl)acetamide] |
| < 4.82 | 8.70 | COC(=O)Nc1cc(Nc2nc(-c3cccc(C(F)(F)F)n3)nc3[nH]cnc23)ccn1 [Example 19, Methyl (4-((2-(6-(trifluoromethyl)pyridin-2-yl)-9H-purin-6-yl)amino)pyridin-2-yl)carbamate] |
| 6.33 | 9.25 | O=C(Nc1cc(Nc2nc(-c3cccc(C(F)(F)F)n3)nc3[nH]cnc23)ccn1)C1CC1 [Example 20, N-(4-((2-(6-(trifluoromethyl)pyridin-2-yl)-9H-purin-6-yl)amino)pyridin-2-yl)cyclopropanecarboxamide] |
| < 4.82 | 9.35 | COCC(=O)Nc1cc(Nc2nc(-c3cccc(C(F)(F)F)n3)nc3[nH]cnc23)ccn1 [Example 21, 2-methoxy-N-(4-((2-(6-(trifluoromethyl)pyridin-2-yl)-9H-purin-6-yl)amino)pyridin-2-yl)acetamide] |
| < 4.82 | 8.96 | COCCC(=O)Nc1cc(Nc2nc(-c3cccc(C(F)(F)F)n3)nc3[nH]cnc23)ccn1 [Example 22, 3-methoxy-N-(4-((2-(6-(trifluoromethyl)pyridin-2-yl)-9H-purin-6-yl)amino)pyridin-2-yl)propanamide] |
| < 4.82 | 9.32 | O=C(CCC(F)(F)F)Nc1cc(Nc2nc(-c3cccc(C(F)(F)F)n3)nc3[nH]cnc23)ccn1 [Example 23, 4,4,4-trifluoro-N-(4-((2-(6-(trifluoromethyl)pyridin-2-yl)-9H-purin-6-yl)amino)pyridin-2-yl)butanamide] |
